Test results reported in article PMC7699892, “Repositioned Drugs for Chagas Disease Unveiled via Structure-Based Drug Repositioning” (International Journal of Molecular Sciences, 2020).

Tests used:
[1] = test system: T. cruzi; set-up: method as in per drug in column Reference of Table 2; conditions: class of literature evidence of trypanocidal activity; ref per drug in Table 2; cited from earlier work; note: key: ? indicates unknown activity; + indicates indirect evidence of activity; ++ indicates direct evidence of activity
[2] = test system: T. cruzi blood trypomastigote (Ninoa strain); assay: ex vivo evaluation against blood trypomastigotes, Ninoa strain; assay type: cell-based; conditions: Trypanosoma cruzi, 24 h at 4 °C
Text: (§1) The high-priority hit drugs were subjected to experimental validation in vitro, ex vivo, and in vivo, together with a cytotoxicity assay. Ninoa and INC-5 strains of T. cruzi were used in this study. The Ninoa strain was obtained in 1986 by xenodiagnoses from an acute case of Chagas’ disease in Oaxaca, Mexico, whereas the INC-5 strain was obtained in 1997 from a chronic case of Chagas’ disease in a person in Guanajuato, Mexico.
(§2) Ex vivo evaluation of different FDA-approved drugs against Trypanosoma cruzi blood trypomastigotes. The ex vivo evaluation of the trypanocidal activity of the FDA-approved drugs was carried out according to the methodology described above. Blood from parasite infected animals was obtained from intracardiac puncture and diluted with phosphate-buffered saline (PBS), pH 7.2, until a concentration of 2 × 10^6 blood trypomastigotes/mL was obtained. From this, 195 µL of blood/well was placed in a 96-well plate and incubated at 4 °C for 24 h with 5 µL of each drug tested at different concentrations (5 µg/mL to […]). […] After incubation, live parasites were counted in a Neubauer chamber and the IC50 was calculated. Three independent experiments by triplicate were performed.

[3] = test system: T. cruzi blood trypomastigote (INC-5 strain); assay: ex vivo evaluation against blood trypomastigotes, INC-5 strain; assay type: cell-based; conditions: Trypanosoma cruzi; ex vivo, INC-5 strain, 24 h at 4 °C; read-out: T.cruzi blood trypomastigote IC50 INC-5
Text: as §1, §2

[4] = test system: T. cruzi epimastigote (INC-5 strain); assay: in vitro evaluation against epimastigotes, INC-5 strain (resazurin); assay type: cell-based; conditions: Trypanosoma cruzi, 48 h at 28 °C
Text: (§3) The high-priority hit drugs were subjected to experimental validation in vitro, ex vivo, and in vivo, together with a cytotoxicity assay. Ninoa and INC-5 strains of T. cruzi were used in this study. […] In vitro evaluation of different FDA-approved drugs against Trypanosoma cruzi epimastigotes. The epimastigote stage of Ninoa and INC5 strains of T. cruzi were used to evaluated the in vitro trypanocidal activity of different FDA-approved drugs. Both strains were maintained in liver infusion tryptose (LIT) medium, supplemented with 10% fetal bovine serum (FBS) and 0.1% penicillin–streptomycin. They were preserved by transferring 1 × 10^6 parasites/mL into a new culture medium every week. […] All compounds were initially prepared at 10 mg/mL, using dimethyl sulfoxide (DMSO) as diluent. Serial dilutions were performed using complemented LIT medium until concentrations of 100 to 0.46 µg/mL of each drug were obtained. […] After the incubation period, 20 µL of 2.5 mM resazurin solution were added to each well and incubated for 3 h. All assays were carried out in triplicate.

[5] = test system: T. cruzi epimastigote (Ninoa strain); assay: in vitro evaluation against epimastigotes, Ninoa strain (resazurin); assay type: cell-based; conditions: Trypanosoma cruzi, 48 h at 28 °C
Text: as §3

[6] = test system: T. cruzi INC-5 strain; assay: in vivo short-term trypanocidal activity (parasitemia) in infected CD1 mice, INC-5 strain; set-up: species or system Trypanosoma cruzi in CD1 mice; conditions: for Parasitemia inhibition percentage over the time, 2 horas INC-5 / Parasitemia inhibition percentage over the time, 4 horas INC-5 / Parasitemia inhibition percentage over the time, 6 horas INC-5: 100 mg/kg oral; for parasitemia inhibition: mice infected with INC-5 strain, single oral dose 100 mg/kg, eight hours after administration
Experimental: (§4) Parasitemia was monitored at 2, 4, 6, and 8 h after administration (see Figure 2).
(§5) CD1 strain mice, 6–8 weeks old, were used to maintain Ninoa and INC-5 strains of T. cruzi. Animals were given by the University of Science and Arts of Chiapas. To maintain the strains, animals were intraperitoneally inoculated every 14 days with 1 × 10^5 blood trypomastigote, obtained from parasite-infected mice. Parasitemia was monitored every three days by the Pizzi method. For this, 5 µL of blood from the caudal vein of infected mice were deposited on a slide and evenly distributed with an 18 × 18 mm coverslip. Parasite counting was performed by observing 15 microscopic fields using a 40 × objective lens. For the in vivo short term evaluation of the trypanocidal activity of the FDA-approved drugs, six groups of six CD1 mice each with homogeneous weight and parasitemia were used.
(§6) In vivo short-term evaluation of the trypanocidal activity of the FDA-approved drugs. Six groups of six CD1 female mice were infected with blood trypomastigotes of Ninoa and INC-5 strains following the methodology previously described in Romanha et al. and in Díaz-Chiguer et al.. At day 13 post-infection, when the infected mice reached an average of 5 × 10^6 parasites/mL, a single dose of the FDA-approved drugs at 100 mg/kg body weight was orally administered. Parasitemia was monitored following the Pizzi method at 2, 4, 6, and 8 h post-treatment […] using mineral oil as a vehicle. […] Mice examination was performed as stated in the Norma Official Mexicana (NOM-062-Z00-1999), published on August 2009.

[7] = test system: T. cruzi Ninoa strain; assay: in vivo short-term trypanocidal activity (parasitemia) in infected CD1 mice, Ninoa strain; set-up: species or system Trypanosoma cruzi in CD1 mice; conditions: for Parasitemia inhibition percentage over the time, 2 horas Ninoa / Parasitemia inhibition percentage over the time, 4 horas Ninoa / Parasitemia inhibition percentage over the time, 6 horas Ninoa: 100 mg/kg oral; for parasitemia inhibition: mice infected with Ninoa strain, single oral dose 100 mg/kg, eight hours after administration
Experimental: as §4, §5, §6

[8] = test system: T. cruzi epimastigotes; set-up: method as in PMID 32560043; conditions: cited from earlier work
[9] = 6 horas (first column so headed)
[10] = 6 horas (second, last column so headed)

COc1cccc2c1C(=O)c1c(O)c3c(c(O)c1C2=O)C[C@@](O)(C(C)=O)C[C@@H]3O[C@H]1C[C@H](N)[C@H](O)[C@H](C)O1 [Aunomycin]
Trypan. Activity [1]: +

O=C(Cn1ccnc1[N+](=O)[O-])NCc1ccccc1 [Benznidazole]
IC50 [2]: 156 ± 0.11 µM | IC50 [3]: 130.6 ± 0.08 µM | IC50 [4]: 19.9 ± 0.23 µM

O=C(O)c1ccccc1 [Benzoic acid]
Trypan. Activity [1]: ++

Cc1ccc(-c2cc(C(F)(F)F)nn2-c2ccc(S(N)(=O)=O)cc2)cc1 [Celecoxib]
IC50 [2]: > 100 µM | IC50 [5]: > 400 µM | IC50 [3]: > 100 µM | IC50 [4]: > 400 µM

CN(C)CCCC1(c2ccc(F)cc2)OCc2cc(C#N)ccc21 (centres unmarked) [Citalopram]
Trypan. Activity [1]: ++

Nc1nc(=O)c2nc(CNc3ccc(C(=O)N[C@@H](CCC(=O)O)C(=O)O)cc3)cnc2[nH]1 [Folic acid]
IC50 [2]: 28.1 ± 0.01 µM | IC50 [5]: > 400 µM | IC50 [3]: 21.5 ± 0.03 µM | IC50 [4]: > 400 µM | Parasitemia inhibition percentage over the time, 2 horas INC-5 [6]: 100 | Parasitemia inhibition percentage over the time, 4 horas INC-5 [6]: 50 | Parasitemia inhibition percentage over the time, 6 horas INC-5 [6, 9]: 33.3 | Parasitemia inhibition percentage over the time, 6 horas INC-5 [6, 10]: 33.3 | parasitemia inhibition [6]: 66.7% | Parasitemia inhibition percentage over the time, 2 horas Ninoa [7]: 100 | Parasitemia inhibition percentage over the time, 4 horas Ninoa [7]: 71 | Parasitemia inhibition percentage over the time, 6 horas Ninoa [7, 9]: 42.8 | Parasitemia inhibition percentage over the time, 6 horas Ninoa [7, 10]: 42.8 | parasitemia inhibition [7]: 57.2%

O=C(O)P(=O)(O)O [Foscarnet]
Trypan. Activity [1]: ++

Cc1cnc(C(=O)NCCc2ccc(S(=O)(=O)NC(=O)NC3CCCCC3)cc2)cn1 [Glipizide]
growth inhibitory activity on T. cruzi epimastigotes [8]: micromolar range

COc1ccc2c(c1)C(=O)N(CCc1ccc(S(=O)(=O)NC(=O)NC3CCCCC3)cc1)C(=O)C2(C)C [Gliquidone]
growth inhibitory activity on T. cruzi epimastigotes [8]: micromolar range

N[C@@H](CCC(=O)N[C@@H](CS)C(=O)NCC(=O)O)C(=O)O [Glutathione]
IC50 [2]: > 100 µM | IC50 [5]: > 400 µM | IC50 [3]: > 100 µM | IC50 [4]: > 400 µM

COc1ccc(Cl)cc1C(=O)NCCc1ccc(S(=O)(=O)NC(=O)NC2CCCCC2)cc1 [Glyburide]
growth inhibitory activity on T. cruzi epimastigotes [8]: micromolar range

CC1=C(/C=C/C(C)=C/C=C/C(C)=C\C(=O)O)C(C)(C)CCC1 [Isotretinoin]
Trypan. Activity [1]: ++

Nc1nc2c(c(=O)[nH]1)N(C=O)C(CNc1ccc(C(=O)N[C@@H](CCC(=O)O)C(=O)O)cc1)CN2 (some centres unmarked) [Leucovorin]
IC50 [2]: > 100 µM | IC50 [5]: > 400 µM | IC50 [3]: > 100 µM | IC50 [4]: > 400 µM

CC12CC3CC(C)(C1)CC(N)(C3)C2 [Memantine]
Trypan. Activity [1]: ++

CN(C)c1ccc(O)c2c1C[C@H]1C[C@H]3[C@H](N(C)C)C(O)=C(C(N)=O)C(=O)[C@@]3(O)C(O)=C1C2=O [Minocycline]
Trypan. Activity [1]: ++

COc1ccc2cc([C@H](C)C(=O)O)ccc2c1 [Naproxen]
IC50 [2]: 58.5 ± 0.07 µM | IC50 [5]: > 400 µM | IC50 [3]: 38.3 ± 0.06 µM | IC50 [4]: > 400 µM | Parasitemia inhibition percentage over the time, 2 horas INC-5 [6]: 100 | Parasitemia inhibition percentage over the time, 4 horas INC-5 [6]: 85.7 | Parasitemia inhibition percentage over the time, 6 horas INC-5 [6, 9]: 71.4 | Parasitemia inhibition percentage over the time, 6 horas INC-5 [6, 10]: 57.1 | parasitemia inhibition [6]: 42.9% | Parasitemia inhibition percentage over the time, 2 horas Ninoa [7]: 100 | Parasitemia inhibition percentage over the time, 4 horas Ninoa [7]: 71 | Parasitemia inhibition percentage over the time, 6 horas Ninoa [7, 9]: 28.5 | Parasitemia inhibition percentage over the time, 6 horas Ninoa [7, 10]: 14.2 | parasitemia inhibition [7]: 85.8%

NC(=O)c1cccnc1 [Nicotinamide]
Trypan. Activity [1]: ++

CC1CS(=O)(=O)CCN1/N=C/c1ccc([N+](=O)[O-])o1 (centres unmarked) [Nifurtimox]
IC50 [2]: 167.1 ± 0.03 µM | IC50 [5]: 7.09 ± 0.12 µM | IC50 [3]: 115.2 ± 0.17 µM | IC50 [4]: 6.47 ± 0.42 µM | Parasitemia inhibition percentage over the time, 2 horas INC-5 [6]: 100 | Parasitemia inhibition percentage over the time, 4 horas INC-5 [6]: 66.6 | Parasitemia inhibition percentage over the time, 6 horas INC-5 [6, 9]: 55.5 | Parasitemia inhibition percentage over the time, 6 horas INC-5 [6, 10]: 27.7 | parasitemia inhibition [6]: 72.3% | Parasitemia inhibition percentage over the time, 2 horas Ninoa [7]: 100 | Parasitemia inhibition percentage over the time, 4 horas Ninoa [7]: 50 | Parasitemia inhibition percentage over the time, 6 horas Ninoa [7, 9]: 27.0 | Parasitemia inhibition percentage over the time, 6 horas Ninoa [7, 10]: 22.2 | parasitemia inhibition [7]: 77.8%

Cc1cn(-c2cc(NC(=O)c3ccc(C)c(Nc4nccc(-c5cccnc5)n4)c3)cc(C(F)(F)F)c2)cn1 [Nilotinib]
growth inhibitory activity on T. cruzi epimastigotes [8]: micromolar range

CC(=O)O[C@H]1C(=O)[C@@]2(C)[C@H]([C@H](OC(=O)c3ccccc3)[C@]3(O)C[C@H](OC(=O)[C@H](O)[C@@H](NC(=O)c4ccccc4)c4ccccc4)C(C)=C1C3(C)C)[C@]1(OC(C)=O)CO[C@@H]1C[C@@H]2O [Paclitaxel]
Trypan. Activity [1]: ++

Nc1nc2[nH]cc(CCc3ccc(C(=O)N[C@@H](CCC(=O)O)C(=O)O)cc3)c2c(=O)[nH]1 [Pemetrexed]
Trypan. Activity [1]: +

CC(=O)CCCCn1c(=O)c2c(ncn2C)n(C)c1=O [Pentoxifylline]
IC50 [2]: > 100 µM | IC50 [5]: > 400 µM | IC50 [3]: > 100 µM | IC50 [4]: > 400 µM | Trypan. Activity [1]: +

CC(=O)[C@H]1CC[C@H]2[C@@H]3CCC4=CC(=O)CC[C@]4(C)[C@H]3CC[C@]12C [Progesterone]
Trypan. Activity [1]: +

C=C[C@H]1C[N@@]2CC[C@H]1C[C@H]2[C@H](O)c1ccnc2ccc(OC)cc12 [Quinine]
Trypan. Activity [1]: ++

CC(N)C12CC3CC(CC(C3)C1)C2 (centres unmarked) [Rimantadine]
Trypan. Activity [1]: ++

CC(C)(C)NC(=O)[C@@H]1C[C@@H]2CCCC[C@@H]2CN1C[C@@H](O)[C@H](Cc1ccccc1)NC(=O)[C@H](CC(N)=O)NC(=O)c1ccc2ccccc2n1 [Saquinavir]
Trypan. Activity [1]: ++

Cn1c(=O)c2[nH]cnc2n(C)c1=O [Theophylline]
IC50 [2]: > 100 µM | IC50 [5]: > 400 µM | IC50 [3]: > 100 µM | IC50 [4]: > 400 µM

CSc1ccc2c(c1)N(CCC1CCCCN1C)c1ccccc1S2 (centres unmarked) [Thioridazine]
Trypan. Activity [1]: ++

Nc1nc2nc[nH]c2c(=S)[nH]1 [Tioguanine]
Trypan. Activity [1]: ++

Nc1nc(N)c2nc(-c3ccccc3)c(N)nc2n1 [Triamterene]
Trypan. Activity [1]: ++

COc1cc(Cc2cnc(N)nc2N)cc(OC)c1OC [Trimethoprim]
Trypan. Activity [1]: ++

CC(=O)N[C@H]1[C@H]([C@H](O)[C@H](O)CO)OC(C(=O)O)=C[C@@H]1N=C(N)N [Zanamivir]
Trypan. Activity [1]: ++
